The record followed here is publication PMC9525908, “α-Crystallin chaperone mimetic drugs inhibit lens γ-crystallin aggregation: Potential role for cataract prevention” (The Journal of Biological Chemistry, 2022).

What all share (format): biochemical
Experiment [1] concerns the target T1, HγD-ox (Homo sapiens, UniProt P07320).
T1 construct: made in house; host or cells: Escherichia coli BL21(DE3) pLysS, pET3d vector
T1 sequence (P07320 1-174): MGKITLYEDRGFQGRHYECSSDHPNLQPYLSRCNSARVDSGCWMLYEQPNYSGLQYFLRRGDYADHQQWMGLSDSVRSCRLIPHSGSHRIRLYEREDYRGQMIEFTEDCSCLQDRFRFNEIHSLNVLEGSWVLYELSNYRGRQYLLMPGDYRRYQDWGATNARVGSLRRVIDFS
As to the kind of experiment: Thermal unfolding (Tm) of oxidized HγD. The conditions noted are these: 100 μM agent, 360/320 nm ratio; 68 ± 0.07 °C without agent. The text has this: (§1) In postsubmission experiments, we attempted to find mechanistic clues relevant to the use of an H2O2 oxidation step prior to the thermal stress used during the initial drug screen. For this reason, we did a comparative study of oxidized (HγD-ox) versus native HγD (HyD-nat), hypothesizing that bis-ANS would both act like the drugs and provide information on the role of exposed hydrophobicity ([40]). HγD was oxidized in diethylenetriaminepentaacetic acid […] phosphate buffer to facilitate hydroxyl radical formation and protein damage, followed by dialysis against DTPA-treated buffer to eliminate the known proaggregating effects of divalent metals ([32]) in the subsequent steps. […] Overall protective effects were more pronounced for the oxidized than nonoxidized form of HγD. […] In the hope to obtain clues on the impact of bis-ANS, drugs C, G, and M on protein aggregation status, native PAGE was performed (Fig. 3G). Polymers greater than 250 kD are present in unheated HγD-nat but only the size of 75 to 100 kD in HγD-ox. […] Other techniques will be needed to assess the relationship between drugs and aggregate size.
(§2) Thermal denaturation study was monitored using fluorescence spectroscopy. Protein solutions (10 μM) in the presence and absence of drugs or bis-ANS (100 μM) were heated continuously from 30 to 95 °C, and the fluorescence data were collected every 5 °C after 1 min equilibration at the given temperature. Unfolding data were fit to Greene and Pace’s two-state model ([82]) using GraphPad Prism software (GraphPad Software, Inc).

A further experiment concerns the target T2, WT-HγD crystallin (Homo sapiens, UniProt P07320).
T2 construct: made in house; host or cells: E. coli BL21(DE3) pLysS, pET3d vector
T2 sequence (P07320 1-174): T1 sequence (P07320 1-174)
As to the kind of experiment: Thermal unfolding of WT-HγD by fluorescence ratio (Tm). The conditions noted are these: 100 μM agent, 360/320 nm ratio; 78 ± 0.1 °C without agent.
Source text: His-tag free recombinant HγD crystallin produced in Escherichia coli using pET3d or pET17b expression vector was used to investigate the effects of compounds C and G against thermal-induced unfolding and aggregate formation. The antiaggregation potency of drug C and G was reconfirmed by dynamic light scattering (DLS) (Fig. 2A). […] There is a decrease in the size of aggregates from as high as 7261 nm without drugs to 30.5 nm with drug C and 84.9 nm with drug G. Drug M has moderate activity with mean aggregate size of 569 nm radius (Table S2). […] Furthermore, we investigated whether these drugs can prevent thermal unfolding of HγD (Fig. 2C). […] It is the temperature at which 50% of the protein unfolds.
as §2

The target in experiment [2] is T1, HγD-ox. In words: Turbidity (600 nm) of oxidized HγD heated 10 min at 72 °C. As to conditions: 1.4 mg/ml with DTPA, 100 and 500 μM bis-ANS, 100 μM drug C, 500 μM drug M.
Source text: as §1

Entries after “also recorded” stand apart in the source; their conditions may differ.

With `O=S(=O)(O)c1cccc2c(-c3ccc(Nc4ccccc4)c4c(S(=O)(=O)O)cccc34)ccc(Nc3ccccc3)c12` [bis-ANS, bis-8-anilino-1-naphthalene sulfonic acid], on HγD-ox [1], the “Tm of HγD-ox” value worked out at 78 ± 0.1 °C. Besides, on WT-HγD crystallin, the “Tm of HγD-nat” value is 82 ± 0.02 °C. Besides, the “Effect on aggregation/turbidity of HγD-ox” value at HγD-ox [2] is listed as “strongly suppressed; also recorded: potently inhibited aggregation”.
